# Test results from patent US10226530B2, “Methods for treating and/or limiting development of diabetes” (Biocrine AB, priority 2011, dated 2019).
# Entries after “also recorded” stand apart in the source; their conditions may differ.
# Legend:
# β cell CaV channels [1] = test: perforated whole-cell patch-clamp of Ca2+ currents in RINm5F cells; type: cell-based, rat
# Experimental: (§1) Islets of Langerhans were isolated from adult male and female mice and dispersed into single ([…]. RINm5F cells at about 70% confluency were trypsinized. The resultant suspension of cells was seeded into Petri dishes or 12-well plates. The cells were cultivated in RPMI 1640 medium supplemented with 10% fetal bovine serum, 2 mM L-glutamine, and 100 U/100 […] penicillin/streptomycin (Invitrogen, Carlsbad, Calif.) and maintained at 37° C. in a humidified 5% CO2 incubator. They were grown overnight and then subjected to siRNA transfection. For patch-clamp analysis, cells underwent overnight treatment with ApoCIII, the PKA inhibitor H-89 (Calbiochem, La Jolla, Calif.), the PKC inhibitor calphostin C (Calbiochem), the Src kinase inhibitor PP2 (Calbiochem) and the CaV1 channel blocker nimodipine (Calbiochem) in RPMI medium at final concentrations of 20 μg/ml, 0.5 μM, 0.1 μM, 0.1 μM and 5 μM, respectively. ApoCIII was dissolved in 0.1% triflouroacetic acid (TFA) to make a stock solution of 1 mg/ml, whereas H-89, calphostin C, PP2 and nimodipine were dissolved in dimethyl sulfoxide (DMSO) to form stock solutions of 5 mM, 1 mM, 1 mM and 10 mM, respectively. 0.002% TFA and/or 0.03% DMSO were used as vehicle controls.
# Two pairs of 21-mer siRNA duplexes targeting the rat β1 integrin (β1 integrin siRNA #1, ID127971 and β1 integrin siRNA #2, ID127972) were designed and chemically synthesized by Applied Biosystems/Ambion (Austin, Tex.). Their sequences were subjected to BLAST search to ensure their specificity. Silencer® Select Negative Control siRNA (4390843), not targeting any gene product, and Silencer® Select GAPDH Positive Control siRNA (4390849), efficiently silencing GAPDH in human, mouse, and rat cells, were purchased from Applied Biosystems/Ambion (Austin, Tex.). RINm5F cells were reversely transfected with Lipofectamine™ RNAiMAX™. Briefly, negative control siRNA, β1 integrin siRNA #1 or β1 integrin siRNA #2 was mixed with Lipofectamine™ RNAiMAX™ followed by 20-min incubation at room temperature. Subsequently, cells were added to the siRNA/Lipofectamine™ RNAiMAX mixtures followed by gentle agitation and kept at 37° C. in a humidified 5% CO2 incubator. After 72 h, the transfected cells were grown to about 70% confluency and subjected to immunoblot assay or different treatments.
# (§2) Mouse islet cells and RINm5F cells following different treatments were subjected to single channel and whole-cell patch-clamp measurements. Cell-attached and perforated whole-cell patch-clamp configurations were employed. Electrodes were made from borosilicate glass capillaries, fire-polished and coated with Sylgard close to their tips. Some of them were filled with a solution containing (in mM) 110 BaCl2, 10 TEA-Cl, and 5 HEPES (pH 7.4 with Ba(OH)2) for single channel measurements. Others were filled with a solution composed of (in mM) 76 Cs2SO4, 1 MgCl2, 10 KCl, 10 NaCl, and 5 HEPES (pH 7.35 with CsOH), as well as amphotericin B (0.24 mg/ml) for whole-cell current recordings. Electrode resistance ranged between 4 and 6 MΩ when they were filled with electrode solutions and immersed in bath solutions. The electrode offset potential was corrected in bath solutions prior to gigaseal formation. Single-channel recordings were performed with cells bathed in a depolarizing external recording solution, containing (in mM) 125 KCl, 30 KOH, 10 EGTA, 2 CaCl2, 1 MgCl2, and 5 HEPES-KOH (pH 7.15). This solution was used to bring the intracellular potential to 0 mV. For perforated whole-cell current measurements, the cells were bathed in a solution containing (in mM) 138 NaCl, 5.6 KCl, 1.2 MgCl2, 10 CaCl2, 5 HEPES (pH 7.4). Single channel and whole-cell currents were recorded with an Axopatch 200B amplifier (Molecular Devices, Foster City, Calif.) and an EPC-9 patch clamp amplifier (HEKA Elektronik, Lambrecht/Pfalz, Germany), respectively, at room temperature (about 22° C.). […]
# β cell CaV channels [2] = conditions: mouse islet β cell; Juntti-Berggren et al., 2004; cited from earlier work
# CaV1 channels [3] = test: cell-attached single channel patch-clamp of unitary CaV1 channel currents in RINm5F cells; type: cell-based, rat; conditions: ApoCIII 20 μg/ml overnight versus vehicle solution
# Experimental: as §1
# as §2, with “For perforated whole-cell current measurements, the cells were bathed in a solution containing (in mM) 138 NaCl, 5.6 KCl, 1.2 MgCl2, 10 CaCl2, 5 HEPES (pH 7.4).” left out
# CaV1 channels [4] = test: cell-attached single channel patch-clamp of unitary CaV1 channel currents in mouse islet β cells; type: cell-based
# Experimental: as §1
# as §2, with “For perforated whole-cell current measurements, the cells were bathed in a solution containing (in mM) 138 NaCl, 5.6 KCl, 1.2 MgCl2, 10 CaCl2, 5 HEPES (pH 7.4).” left out
# CaV1.3 = test: immunoblot of CaV1.3 subunit in RINm5F cell homogenates; type: cell-based, rat; conditions: overnight ApoCIII; P>0.05
# Experimental: as §1, with “ApoCIII was dissolved in 0.1% triflouroacetic acid (TFA) to make a stock solution of 1 mg/ml, whereas H-89, calphostin C, PP2 and nimodipine were dissolved in dimethyl sulfoxide (DMSO) to form stock solutions of 5 mM, 1 mM, 1 mM and 10 mM, respectively. 0.002% TFA and/or 0.03% DMSO were used as vehicle controls.” left out
# (§3) RINm5F cells following different treatments were lysed in a lysis buffer (pH 7.5) consisting of 50 mM HEPES, 150 mM NaCl, 1 mM EGTA, 1 mM EDTA, 10% glycerol, 1% triton X-100, 1 mM PMSF and a protease inhibitor cocktail (Roche Diagnostics, Mannheim, Germany). […] The protein concentration of the resulting samples was determined with Bio-Rad protein assay reagent (Bio-Rad, Hercules, Calif.). […]
# CaV1.2 = test: immunoblot of CaV1.2 subunit in RINm5F cell homogenates; type: cell-based, rat; conditions: overnight ApoCIII; P>0.05
# Experimental: as §1, with “ApoCIII was dissolved in 0.1% triflouroacetic acid (TFA) to make a stock solution of 1 mg/ml, whereas H-89, calphostin C, PP2 and nimodipine were dissolved in dimethyl sulfoxide (DMSO) to form stock solutions of 5 mM, 1 mM, 1 mM and 10 mM, respectively. 0.002% TFA and/or 0.03% DMSO were used as vehicle controls.” left out
# as §3
# [5] = H-89 0.5 μM, ApoCIII 20 μg/ml, overnight
# [6] = ApoCIII 20 μg/ml overnight versus control vehicle
molecule,measurement,setting,value
O=S(=O)(NCCNC/C=C/c1ccc(Br)cc1)c1cccc2cnccc12 [H-89],"Ca2+ current density, cotreatment of ApoCIII and H-89 versus cells treated with ApoCIII",β cell CaV channels [1]; [5],did not significantly differ
same,"Ca2+ current density, cotreatment of ApoCIII and H-89 versus control cells",β cell CaV channels [1]; [5],did not significantly differ
same,"Ca2+ current densities under basal conditions, H-89 versus control","β cell CaV channels [1]; H-89 0.5 μM, absence of ApoCIII",did not significantly influence
CC(C)(C)n1nc(-c2ccc(Cl)cc2)c2c(N)ncnc21 [PP2],difference in Ca2+ current density to vehicle: ApoCIII/PP2-cotreated cells compared with that of ApoCIII-treated cells,β cell CaV channels [1]; PP2 0.1 μM,less prominent
same,"Ca2+ current densities, cells incubated with PP2 versus vehicle-treated cells","β cell CaV channels [1]; PP2 0.1 μM, absence of ApoCIII",similar
same,"Ca2+ currents, cotreatment of ApoCIII and PP2 versus vehicle control cells","β cell CaV channels [1]; voltage range 20-40 mV, PP2 0.1 μM",significantly larger
apolipoprotein CIII [ApoCIII],whole-cell Ca2+ currents after ApoCIII incubation,β cell CaV channels [2],significantly enhances
same,"density of whole-cell Ca2+ currents, ApoCIII group versus control group","β cell CaV channels [1]; no voltage range printed, H-89/PP2 experiment",Significantly higher
same,"Ca2+ current density, NC siRNA/apoCIII versus NC siRNA/Control","β cell CaV channels [1]; voltage range 10-40 mV, negative control siRNA-transfected cells",significant increase
same,"whole-cell Ca2+ current density, ApoCIII-treated cells versus vehicle control cells","β cell CaV channels [1]; voltage range 10 to 50 mV, ApoCIII 20 μg/ml overnight",significantly higher; also recorded: increased significantly; also recorded: significantly elevated; also recorded: significantly increased
same,"whole-cell Ca2+ current density, ApoCIII group versus control group","β cell CaV channels [1]; voltage range from 10 to 30 mV, ApoCIII 20 μg/ml overnight",significantly higher
same,channel number of CaV1 channels,CaV1 channels [3],significantly increased
same,mean closed time of CaV1 channels,CaV1 channels [3],shortened
same,mean open time of CaV1 channels,CaV1 channels [3],prolonged
same,open probability of CaV1 channels,CaV1 channels [3],elevated
same,mean closed time of unitary CaV1 channels,CaV1 channels [4]; ApoCIII 20 μg/ml overnight versus control patches,significantly shorter
same,mean open time of unitary CaV1 channels,CaV1 channels [4]; [6],significantly greater
same,open probability of unitary CaV1 channels,CaV1 channels [4]; [6],significantly greater
same,average number of unitary CaV1 channels,"CaV1 channels [4]; ApoCIII 20 μg/ml overnight versus control vehicle, plasma membrane patches",significantly greater
same,"relative abundance of CaV1.3 subunits, ApoCIII incubation versus vehicle incubation",CaV1.3,no significant difference
same,"relative abundance of CaV1.2 subunits, ApoCIII incubation versus vehicle incubation",CaV1.2,no significant difference
calphostin C [CalpC],"Ca2+ current density, ApoCIII/CalpC-cotreated cells versus ApoCIII-treated cells",β cell CaV channels [1]; calphostin C 0.1 μM,no difference
same,"Ca2+ current density, CalpC-treated cells versus control vehicle","β cell CaV channels [1]; calphostin C 0.1 μM, absence of ApoCIII",similar
same,"mean Ca2+ current density, ApoCIII/CalpC versus vehicle control cells","β cell CaV channels [1]; voltage range from 20 to 50 mV, calphostin C 0.1 μM",increased significantly
